For orientation: GI50 means the concentration that inhibits growth by half. Broadly, the EC50 is the concentration at which the effect is half-maximal. In general, IC50 refers to the concentration that inhibits the measured activity by half.

Data on six molecules can be found in paper PMC4400119 (Cancer chemotherapy and pharmacology, 2014).

Where two headings read alike, the source gives them in different places.

Data set [1] concerns NCI-60 panel. Conditions: average response from all cell lines tested, cited from earlier work; for GI50: read-out: Potency, Mean GI50.
Data set [2] concerns HepG2 cells. Description: Mitochondrial membrane depolarization and AIF release. The class given is cell-based, human. The note with it: 30 μM, 6 h.
Data set [3] relates to HepG2. As to the kind of experiment: Caspase-Glo 3/7 induction, HepG2. The class given is cell-based, human.
The subject of another data set is T47D. Description: MTT cell viability assay, T47D. The note with it: Homo sapiens, 72 h, read-out: EC50 cell viability, Breast T47D. Format: cell-based. For orientation: Tetrazolium assays rely on reduction of a dye to a coloured formazan, in cell work by metabolically active cells.
In a further data set the test system is PC-3. Description: MTT cell viability assay, PC-3. Format: cell-based. The note with it: Homo sapiens, PC-3, 72 h, read-out: EC50 cell viability, Prostate PC-3.
Data set [4] concerns the target soluble epoxide hydrolase (sEH). Conditions: read-out: IC50 against sEH; cited from earlier work.
Data set [5] concerns HepG2 cells. Description: Cell viability with pan-caspase inhibitor Z-VAD-FMK co-treatment. Format: cell-based, human. The note with it: Z-VAD-FMK 20 μM pre-incubation 60 min, then 30 μM compound for 24 h.
Data set [6] deals with Huh-7. Description: MTT cell viability assay, Huh-7. The class given is cell-based. Conditions: Homo sapiens, Huh-7, 72 h, read-out: EC50 cell viability, Liver Huh-7.
The next data set has as its system SKBR3. Description: MTT cell viability assay, SKBR3. The note with it: Homo sapiens, SK-BR-3, 72 h, read-out: EC50 cell viability, Breast SKBR3. Format: cell-based.
The next data set relates to ACHN. As to the kind of experiment: MTT cell viability assay, ACHN. Format: cell-based. Conditions: Homo sapiens, 72 h, read-out: EC50 cell viability, Kidney ACHN.
For a further data set, the target named is Raf-1 kinase. The note with it: read-out: IC50 recombinant Raf-1 kinase inhibition; cited from earlier work.
The subject of data set [7] is Huh-7. As to the kind of experiment: Caspase-Glo 3/7 induction, Huh-7. The class given is cell-based, human.
The test system of data set [8] is HepG2. Description: MTT cell viability assay, HepG2. Format: cell-based, human.
For a further data set, the target named is T1, EPHA1 (Homo sapiens, UniProt P21709).
T1 sequence (P21709 26-976): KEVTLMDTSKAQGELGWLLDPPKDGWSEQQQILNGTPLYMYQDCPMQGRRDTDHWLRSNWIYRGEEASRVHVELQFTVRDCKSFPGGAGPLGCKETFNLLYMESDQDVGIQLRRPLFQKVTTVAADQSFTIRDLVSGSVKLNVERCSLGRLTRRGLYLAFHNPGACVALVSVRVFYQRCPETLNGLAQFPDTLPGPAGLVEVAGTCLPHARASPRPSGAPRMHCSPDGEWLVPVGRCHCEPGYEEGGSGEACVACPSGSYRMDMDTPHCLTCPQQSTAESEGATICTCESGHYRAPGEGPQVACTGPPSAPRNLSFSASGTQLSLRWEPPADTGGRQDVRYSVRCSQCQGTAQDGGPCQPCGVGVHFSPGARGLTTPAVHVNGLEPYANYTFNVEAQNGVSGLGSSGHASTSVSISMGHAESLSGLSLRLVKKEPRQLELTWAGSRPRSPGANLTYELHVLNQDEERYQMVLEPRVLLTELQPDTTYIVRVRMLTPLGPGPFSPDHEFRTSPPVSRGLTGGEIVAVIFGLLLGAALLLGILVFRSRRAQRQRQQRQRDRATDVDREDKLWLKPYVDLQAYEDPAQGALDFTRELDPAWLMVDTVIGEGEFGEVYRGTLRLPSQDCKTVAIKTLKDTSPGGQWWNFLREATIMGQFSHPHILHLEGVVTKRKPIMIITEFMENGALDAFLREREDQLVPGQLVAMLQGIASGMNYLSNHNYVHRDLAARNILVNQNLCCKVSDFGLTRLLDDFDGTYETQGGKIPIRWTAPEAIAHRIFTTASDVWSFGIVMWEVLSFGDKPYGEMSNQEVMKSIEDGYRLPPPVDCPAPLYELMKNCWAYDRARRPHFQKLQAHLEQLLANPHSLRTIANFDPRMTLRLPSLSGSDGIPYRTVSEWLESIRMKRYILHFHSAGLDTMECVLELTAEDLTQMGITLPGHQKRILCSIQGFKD
Description: KinaseSeeker kinase screen, EPHA1. Format: binding. Conditions: 10 μM, compared with sorafenib.

The test system of the next data set is STAT3 phosphorylation. As to the kind of experiment: Western blot, STAT3 phosphorylation. The class given is cell-based, human. The note with it: 10 μM, 24 h exposure. For orientation: In western blotting, separated proteins are transferred to a membrane and probed.
The subject of data set [9] is oncogenic b-Raf (V600E) kinase. The note with it: relative to sorafenib; cited from earlier work.
In a further data set the test system is KM12 (colon cancer). As to the kind of experiment: NCI-60 human tumor cell line screen, KM12. The class given is cell-based.
Data set [10] relates to HepG2 cells. Description: Cell cycle analysis. Format: cell-based, human. Conditions: 30 μM, 24-h exposure.
The next data set has as its target FGFR2 (Homo sapiens, UniProt P21802). Description: KinaseSeeker kinase screen, FGFR2. The class given is binding. The note with it: 10 μM, compared with sorafenib.
Data set [11] relates to NCI-60 panel. Conditions: average response from all cell lines tested.
Data set [12] in a line: Pharmacokinetic study, cassette oral administration in mice. The class given is in vivo. Conditions: oral 1 mg/kg.

Chain of FGFR2 (P21802 22-821): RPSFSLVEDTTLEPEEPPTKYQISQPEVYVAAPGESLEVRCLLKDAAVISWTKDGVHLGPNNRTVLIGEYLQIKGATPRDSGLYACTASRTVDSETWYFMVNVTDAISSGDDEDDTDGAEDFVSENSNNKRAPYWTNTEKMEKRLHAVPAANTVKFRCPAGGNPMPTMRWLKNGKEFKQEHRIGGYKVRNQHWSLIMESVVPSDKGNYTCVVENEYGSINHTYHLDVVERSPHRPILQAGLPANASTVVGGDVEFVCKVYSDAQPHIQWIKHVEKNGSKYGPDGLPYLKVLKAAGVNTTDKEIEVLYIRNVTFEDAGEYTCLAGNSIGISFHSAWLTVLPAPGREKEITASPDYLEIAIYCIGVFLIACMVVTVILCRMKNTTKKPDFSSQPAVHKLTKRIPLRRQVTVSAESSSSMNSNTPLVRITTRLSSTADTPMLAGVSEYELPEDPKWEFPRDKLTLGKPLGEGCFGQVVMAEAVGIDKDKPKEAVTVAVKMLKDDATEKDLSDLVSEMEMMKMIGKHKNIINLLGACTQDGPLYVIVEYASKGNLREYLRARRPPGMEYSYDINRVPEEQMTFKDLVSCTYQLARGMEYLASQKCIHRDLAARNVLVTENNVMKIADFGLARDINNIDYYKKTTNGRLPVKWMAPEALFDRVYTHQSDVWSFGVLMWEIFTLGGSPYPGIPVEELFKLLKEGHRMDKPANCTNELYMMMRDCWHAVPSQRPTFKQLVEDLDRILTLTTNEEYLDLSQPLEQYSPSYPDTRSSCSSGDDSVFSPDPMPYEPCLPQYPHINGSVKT

In the case of `C#Cc1cccc(Nc2ncnc3cc(OCCOC)c(OCCOC)cc23)c1` [Erlotinib (Tarceva®)], in the data set with NCI-60 panel [1], the “Potency, Mean TGI50” value is 59 µM and the GI50 is 5.5 µM.
Turning to `COc1cc2ncnc(Nc3ccc(F)c(Cl)c3)c2cc1OCCCN1CCOCC1` [Gefitinib (Iressa®)], in the data set on NCI-60 panel [1], the “Potency, Mean TGI50” value is 19 µM and the GI50 was 3.2 µM.
As for `Cc1ccc(NC(=O)c2ccc(CN3CCN(C)CC3)cc2)cc1Nc1nccc(-c2cccnc2)n1` [Imatinib (Gleevac®)], in the data set on NCI-60 panel [1], the “Potency, Mean TGI50” value was 43 µM and the concentration for 50% growth inhibition (GI50) was 15 µM.
With `CNC(=O)c1cc(Oc2ccc(NC(=O)Nc3ccc(Cl)c(C(F)(F)F)c3)cc2)ccn1` [Sorafenib], in the data set with HepG2 cells [2], the “mitochondrial membrane depolarization and release of AIF” value is “observed”. The “lowest level at which caspase activation was observable” value in the data set with HepG2 [3] (HepG2, 72-h incubation) amounted to 0.1 µM; in the data set on Huh-7 [7] (Huh-7, 72-h incubation), 0.1 µM. The EC50 in the data set on T47D turned out to be 3 ± 0.5 µM; in the data set with PC-3, 5.5 ± 0.8 µM; in the data set on Huh-7 [6], 4.2 ± 0.5 µM; in the data set with SKBR3, 6.5 ± 0.5 µM; in the data set on ACHN, 4 ± 0.5 µM. In addition, the half-inhibitory concentration (IC50) is 0.012 µM in data set [4] and […] on Raf-1 kinase. Moreover, in the data set with HepG2 cells [5], the “effect of Z-VAD-FMK on compound-induced cell death” value is recorded as “no protective effect”. Further, the “Potency, Mean TGI50” value in the data set on NCI-60 panel [1] was 6.0 µM. For the same molecule, in the data set with NCI-60 panel [1], the 50% growth inhibitory concentration (GI50) was 1.9 µM.
Turning to `CCN(CC)CCNC(=O)c1c(C)[nH]c(/C=C2\C(=O)Nc3ccc(F)cc32)c1C` [Sunitinib], the EC50 with T47D stood at 12 ± 1 µM; with PC-3 it was 8 ± 0.5 µM; in the data set with HepG2 [8] (Homo sapiens, HepG2, 72 h, read-out: EC50 cell viability, Liver HepG2), 7.5 ± 0.8 µM; in the data set with Huh-7 [6], 8 ± 0.9 µM; in the data set on SKBR3, 10 ± 0.9 µM; in the data set with ACHN, 8 ± 1 µM. Further, the “Potency, Mean TGI50” value in the data set on NCI-60 panel [1] was 9.6 µM. Further, in the data set on NCI-60 panel [1], the GI50 was 2.2 µM.
For `CNC(=O)c1cc(O[C@H]2CC[C@H](NC(=O)Nc3ccc(Cl)c(C(F)(F)F)c3)CC2)ccn1` [t-CUPM], in the data set on HepG2 cells [2], the “mitochondrial membrane depolarization and release of AIF” value is “observed”. The “caspase 3/7 induction” value in the data set on HepG2 [3] (HepG2, 25 μM, 72-h incubation) is “levels of caspase induction similar to sorafenib”; in the data set with Huh-7 [7] (Huh-7, 25 μM, 72-h incubation), “levels of caspase induction similar to sorafenib”. For the same molecule, the “kinase inhibitory activity toward EPHA1” value at EPHA1 is “reduced its kinase inhibitory activity”. For the same molecule, in the data set on STAT3 phosphorylation, the “suppression of STAT3 phosphorylation” value is reported as “not as effective as sorafenib”. Besides, the “loss in the activity toward oncogenic b-Raf (V600E) kinase” value in data set [9] is listed as 40 fold. In the data set on HepG2 cells [5], the “effect of Z-VAD-FMK on compound-induced cell death” value is recorded as “no protective effect”. For the same molecule, the GI50 in the data set on KM12 (colon cancer) came out at 0.64 µM; in the data set on NCI-60 panel [11] (read-out: Potency, Mean GI50), 9 µM. Besides, in the data set with HepG2 [8] (cell viability, hepatoma cell lines HepG2 and Huh-7), the “EC50 relative to that of sorafenib” value is recorded as “< twofold”. The “effect on cell cycle progression” value in the data set on HepG2 cells [10] is “arrest in G0/G1 transition”. At FGFR2, the “kinase inhibitory activity toward FGFR2” value is recorded as “reduced its kinase inhibitory activity”. Moreover, the “Potency, Mean TGI50” value with NCI-60 panel [11] worked out at 34 µM. The IC50 at Raf-1 kinase is 0.075 µM. Moreover, in data set [12], the “Cmax compared with sorafenib” value is given as “higher Cmax”. In data set [12] (0.5 to 48 h), the “AUCt compared with sorafenib” value is recorded as “significantly higher AUCt”. The “blood levels relative to sorafenib” value in data set [12] (from 0.5 to 48 h) is listed as “tenfold”.
